The values below come from patent publication US6653478B2, “Substituted benzimidazol-2-ones as vasopressin receptor antagonists and neuropeptide Y modulators” (Ortho-McNeil Pharmaceutical, Inc., priority 2000, dated 2003).

SMILES strings stand for the structures. pIC50: −log10 of the molar value. Where a name gives a salt, the structure may show the parent alone.

Test [1] concerns the target T1, human V1a receptor (Homo sapiens, UniProt P37288). Briefly: V1a binding assay (3H-AVP displacement, HEK-293 membranes). Also on record: expressed in transfected cells; host or cells: HEK-293 (membranes). To be noted: for inhibition at 1 µM: 1.0 μM compound, read-out: V1a@1.0, % Inh. A digest of the protocol: (§1)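 Membranes competed against 3H-AVP (40-87 Ci/mmol, 10,000 cpm/well) in 50 mM Tris, 5 mM MgCl2, 0.1% BSA, pH 7.5, with protease inhibitors. Incubated 1 hour at room temperature, then filtered on PEI-presoaked GF/C and scintillation counted. Non-specific binding defined with 1.25 μM AVP.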

The target in another test is T2, NPY2 receptors (Homo sapiens, UniProt P49146).
T2 construct: Cell Membranes from KAN-TS cells having NPY2 receptors; endogenous in cells; host or cells: KAN-TS cells (membranes)
T2 sequence (P49146 1-381): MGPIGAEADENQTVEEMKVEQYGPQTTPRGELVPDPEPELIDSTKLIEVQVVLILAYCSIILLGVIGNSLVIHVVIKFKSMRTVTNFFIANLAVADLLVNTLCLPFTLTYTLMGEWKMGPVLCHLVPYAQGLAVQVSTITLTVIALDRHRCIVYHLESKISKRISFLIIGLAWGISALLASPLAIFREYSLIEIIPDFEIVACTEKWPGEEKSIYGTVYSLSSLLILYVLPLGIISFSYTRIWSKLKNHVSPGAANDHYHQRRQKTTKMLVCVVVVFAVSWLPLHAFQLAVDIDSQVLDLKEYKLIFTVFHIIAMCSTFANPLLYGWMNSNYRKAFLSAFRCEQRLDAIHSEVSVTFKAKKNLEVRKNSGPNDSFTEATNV
As to the kind of experiment: Neuropeptide Y receptor binding assay (125I-PYY, KAN-TS cell membranes). The settings on record: 10 μM compound; read-out: NPY-2@10, % Inh. Summed up: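 Membranes from KAN-TS cells competed with 125I-PYY in binding buffer containing BSA, test compound at 10 μM final, 1 hr at room temperature. Nonspecific binding defined with 1 μM PYY final. Tubes centrifuged, washed with PBS and bound radioactivity gamma-counted.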

Test [2] concerns the target T3, human V1b receptor (Homo sapiens, UniProt P47901).
T3 sequence (P47901 1-424): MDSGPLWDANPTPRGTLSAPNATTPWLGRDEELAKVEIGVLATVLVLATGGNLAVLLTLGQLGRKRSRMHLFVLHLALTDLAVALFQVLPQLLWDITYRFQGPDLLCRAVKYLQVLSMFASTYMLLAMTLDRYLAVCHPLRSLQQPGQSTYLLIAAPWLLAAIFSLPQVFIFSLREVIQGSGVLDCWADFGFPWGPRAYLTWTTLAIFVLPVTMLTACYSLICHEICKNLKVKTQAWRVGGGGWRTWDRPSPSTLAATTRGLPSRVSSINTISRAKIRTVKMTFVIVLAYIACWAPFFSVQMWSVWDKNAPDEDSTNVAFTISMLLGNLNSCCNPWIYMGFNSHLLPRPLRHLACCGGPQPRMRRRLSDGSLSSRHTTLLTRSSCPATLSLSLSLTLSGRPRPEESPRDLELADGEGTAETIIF
Briefly: V1b binding assay (3H-AVP displacement, HEK-293 membranes). Also on record: expressed in transfected cells; host or cells: HEK-293 (membranes). To be noted: for inhibition at 10 µM: 10 μM compound, read-out: V1b % Inh @10; for inhibition at 1 µM: 1.0 μM compound, read-out: V1b@1.0, % Inh. Summed up:
as §1

Test [3] concerns the target T1, human V1a receptor. Briefly: V1a functional assay, intracellular calcium mobilization in transfected HEK-293 cells (FLIPR). Set-up: expressed in transfected cells; host or cells: HEK-293. To be noted: challenge 1 nM AVP; read-out: Cell-Based Functional activity V1a IC50. How it is done:
(§2) V1a, V1b or V2 Functional Assay
(§3) HEK-293 cells were grown in DMEM media supplemented with 10% FBS and glutamine (Gibco BRL, Grand Island, N.Y.). Once transfected the cells were passed biweekly by trypsinization and seeded into 96 well plates at 33,000 cells per well. HEK-293 were transfected with human V1a, V1b or V2 DNA using DMRIE-C reagent from Life Technologies, Inc., Grand Island, N.Y. Cells were tested for their responsiveness to vasopressin 48 hours after transfection. Stable lines were generated by selecting cells grown in culture media containing geneticin (500 μg/ml, Life Technologies).
(§4) Intracellular calcium mobilization was measured in HEK-293 cells transfected to express either human V1a, oxytocin or V1b receptors. Cells were plated into black 96-well Packard Clear-View plates 4 to 7 days prior to use. The cells were loaded with fluo-3 AM (Molecular Probes, Inc., Eugene, Oreg.) in buffer (25 mM Hepes, 125 mM NaCl, 1 gm/l glucose, 0.1% BSA, 5 mM KCl, 0.5 mM CaCl2, 0.5 mM MgCl2, pH 7.45) containing Pluronic (Molecular Probes) Cells were incubated with 5 μM fluo-3 AM for 1 hour shielded from light at room temperature. Intracellular fluorescence was measured using FLIPR (fluorometric imaging plate reader; Molecular Devices, Inc., Sunnyvale, Calif.). The FLIPR protocol called for images to be collected at one second intervals with 50 μl of the test compound added after the initial 10 images. An additional 70 images were then taken to detect any compound agonistic activity. FLIPR then added 50 μl of agonist peptide and collected a final 40 images for quantitating compound antagonistic activity. V1a- and V1b-expressing HEK cells were challenged with 1 nM and 0.5 nM AVP, respectively. Oxytocin-expressing HEK cells were challenged with 0.5 nM oxytocin (Peninsula Labs).
(§5) The data from the cAMP accumulation and the calcium mobilization assays are expressed as IC50 values as determined from dose response curves.

The next test deals with human V2 receptor (Homo sapiens, UniProt P30518). Briefly: V2 binding assay (3H-AVP displacement, HEK-293 membranes). The settings on record: for inhibition at 1 µM: 1.0 μM compound, read-out: V2@1.0, % Inh. Set-up: expressed in transfected cells; host or cells: HEK-293 (membranes). A digest of the protocol:
as §1

Test [4] has as its target T3, human V1b receptor. As to the kind of experiment: V1b functional assay, intracellular calcium mobilization in transfected HEK-293 cells (FLIPR). The settings on record: for pIC50: challenge 0.5 nM AVP, read-out: Cell-Based Functional activity V1b IC50. It counts as cell-based. Also on record: expressed in transfected cells; host or cells: HEK-293. How it is done: as §2, §3, §4, §5
A general note: A change in cytosolic calcium serves as a functional read-out for many receptors and channels.

human V2 receptor, sequence (P30518 whole entry): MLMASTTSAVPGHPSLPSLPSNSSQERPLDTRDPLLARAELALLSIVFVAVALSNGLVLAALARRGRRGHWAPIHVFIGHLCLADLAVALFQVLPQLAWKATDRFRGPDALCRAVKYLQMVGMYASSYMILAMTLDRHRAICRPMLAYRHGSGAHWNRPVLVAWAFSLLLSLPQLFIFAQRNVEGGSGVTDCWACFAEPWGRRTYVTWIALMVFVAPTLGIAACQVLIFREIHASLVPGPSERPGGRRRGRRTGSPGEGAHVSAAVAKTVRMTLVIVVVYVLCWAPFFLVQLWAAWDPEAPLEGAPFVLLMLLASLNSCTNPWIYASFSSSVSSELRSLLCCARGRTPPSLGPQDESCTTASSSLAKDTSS
T1 sequence (P37288 whole entry): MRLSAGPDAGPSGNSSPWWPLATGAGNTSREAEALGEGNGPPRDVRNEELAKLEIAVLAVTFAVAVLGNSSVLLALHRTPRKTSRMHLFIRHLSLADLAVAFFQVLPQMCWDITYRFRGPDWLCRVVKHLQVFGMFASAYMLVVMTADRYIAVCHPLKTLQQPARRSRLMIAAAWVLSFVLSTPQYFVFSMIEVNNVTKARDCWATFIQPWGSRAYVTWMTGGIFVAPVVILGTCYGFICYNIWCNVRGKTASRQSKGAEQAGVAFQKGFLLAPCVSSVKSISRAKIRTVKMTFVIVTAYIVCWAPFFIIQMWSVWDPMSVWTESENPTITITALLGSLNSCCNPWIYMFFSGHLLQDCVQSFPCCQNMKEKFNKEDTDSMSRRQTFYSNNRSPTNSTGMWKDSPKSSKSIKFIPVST

The term pIC50 denotes −log10 of the IC50, conventionally taken in molar units. As for `NCCCn1c(=O)n(C2CCN(C(=O)Nc3ccccc3-c3ccccc3)CC2)c2ccccc21` [Compound 62, 1-[(N1-Piperidinocarboyl-2-biphenylylamino)-4-yl]-3-(3-aminopropyl)-1,3-dihydro-benzimidazol-2-one hydrochloride], the pIC50 on human V1a receptor [1] is 6.70; at human V1a receptor [3], 6.16. For the same molecule, the results for the inhibition at 10 µM at NPY2 receptors and on human V1b receptor [2] were 50% and 35%, respectively. The inhibition at 1 µM at human V2 receptor came to 0%. For the same molecule, the inhibition at 30 µM at human V1b receptor [4] (HEK293, 30 μM compound, read-out: Cell-Based Functional activity V1b % Inh. @ 30) is 0%.

On to `NCCCCn1c(=O)n(C2CCN(C(=S)NC(c3ccccc3)c3ccccc3)CC2)c2ccccc21` [Compound 64, 1-[(N1-Piperidinocarbothioyldiphenylmethylamino)-4-yl]-3-(4-aminobutyl)-1,3-dihydro-benzimidazol-2-one], for which the pIC50 at human V1a receptor [1] is 7.62; at human V1b receptor [2], 5.27; on human V1a receptor [3], 6.85; on human V2 receptor, 6.25; on human V1b receptor [4], 4.92. For the same molecule, at NPY2 receptors, the inhibition at 10 µM is 93%.

`NCCCCn1c(=O)n(C2CCN(C(=S)NC(c3ccccc3)c3ccc(Cl)cc3)CC2)c2ccccc21` (centres unmarked) [Compound 65, 1-[(N1-Piperidinocarbothioyl-4-chlorodiphenylmethylamino)-4-yl]-3-(4-aminobutyl)-1,3-dihydro-benzimidazol-2-one]: the pIC50 is 7.11 at human V1a receptor [1], 6.34 on human V1a receptor [3], 6.30 on human V2 receptor and 4.68 at human V1b receptor [4]. The inhibition at 10 µM on NPY2 receptors and at human V1b receptor [2] was 51% each time.

Regarding `O=C(NC(c1ccccc1)c1ccccc1)N1CCC(n2c(=O)[nH]c3ccccc32)CC1` [Compound 75], the inhibition at 1 µM turned out to be 58% at human V1a receptor [1] and 0% on human V2 receptor. The inhibition at 10 µM on NPY2 receptors turned out to be 12%. Also, at human V1b receptor [2], the pIC50 was 6.00.

On to `O=c1n(CCCN2CCCC2)c2ccccc2n1C1CCN(C(=S)NC(c2ccccc2)c2ccccc2)CC1` [Compound 73, 1-[(N1-piperidinocarbothioylbenzhydrylamino)-4-yl]-3-(3-N-pyrrolidinopropyl)-1,3-dihydro-benzimidazol-2-one], for which the pIC50 on human V1a receptor [1] was 7.80; on human V1b receptor [2] it was 6.52. Besides, the inhibition at 10 µM at NPY2 receptors stood at 89%. For the same molecule, at human V2 receptor, the inhibition at 1 µM stood at 0%.

With `COC(=O)C(Cc1ccccc1)NC(=S)N1CCC(n2c(=O)[nH]c3ccccc32)CC1` (centres unmarked) [Compound 40], at human V1a receptor [1], the negative-log IC50 (pIC50) is 6.72. Further, the inhibition at 10 µM came to 17% at NPY2 receptors and 11% on human V1b receptor [2]. In addition, the inhibition at 1 µM on human V2 receptor was 0%.

Regarding `O=C(NCc1ccccc1F)N1CCC(n2c(=O)n(CCCN3CCCC3)c3ccccc32)CC1` [Compound 89], the inhibition at 1 µM was found to be 34% at human V1a receptor [1], 10% at human V1b receptor [2] and 0% on human V2 receptor. In addition, the inhibition at 10 µM on NPY2 receptors is 8%.

In turn, `CCOC(=O)C1CCN(CCCn2c(=O)n(C3CCN(C(=S)NC(c4ccccc4)c4ccccc4)CC3)c3ccccc32)CC1` [Compound 83, 1-[(N1-piperidinocarbothioylbiphenylmethylamino)-4-yl]-3-[3-(4-ethylcarboxypiperidine)propyl]-1,3-dihydrobenzimidazol-2-one] gave a negative logarithm of the IC50 (pIC50) at human V1a receptor [1] of 7.36. Further, the inhibition at 10 µM at NPY2 receptors was 79%. Also, the inhibition at 1 µM came to 47% at human V1b receptor [2] and 2% on human V2 receptor.

`CC(NC(=O)N1CCC(n2c(=O)[nH]c3ccccc32)CC1)c1cccc2ccccc12` (stereo in doubt) [Compound 7] had a negative-log IC50 (pIC50) on human V1a receptor [1] of 5.04. In addition, the inhibition at 10 µM on NPY2 receptors stood at 13%; on human V1b receptor [2], 11%. In addition, on human V2 receptor, the inhibition at 1 µM was found to be 31%.

Take `O=c1n(CCCN2CCCCC2)c2ccccc2n1C1CCN(C(=S)NC(c2ccccc2)c2ccccc2)CC1` [Compound 81, 1-[(N1-piperidinocarbothioylbiphenylmethylamino)-4-yl]-3-(3-N-piperidinylpropyl)-1,3-dihydrobenzimidazol-2-one]: the pIC50 is 8.40 on human V1a receptor [1] and 7.12 at human V1b receptor [2]. Further, at NPY2 receptors, the inhibition at 10 µM was 89%. The inhibition at 1 µM on human V2 receptor was 18%.

Molecule `CC1CCN(CCCn2c(=O)n(C3CCN(C(=S)NC(c4ccccc4)c4ccccc4)CC3)c3ccccc32)CC1` [Compound 113, 1-[(N1-piperidinocarbothioylbiphenylmethylamino)-4-yl]-3-(4-methylpiperidin-1-yl-propyl)-1,3-dihydrobenzimidazol-2-one] had a pIC50 at human V1a receptor [1] of 7.64. Besides, the inhibition at 1 µM was determined as 70% at human V1a receptor [1], 47% on human V1b receptor [2] and 7% on human V2 receptor. In addition, the inhibition at 10 µM on NPY2 receptors came out at 89%.

On human V1a receptor [1], `CCCN(CCC)CCCn1c(=O)n(C2CCN(C(=S)NC(c3ccccc3)c3ccccc3)CC2)c2ccccc21` [Compound 79, 1-[(N1-piperidinocarbothioylbiphenylmethylamino)-4-yl]-3-(3-N,N-dipropylaminopropyl)-1,3-dihydrobenzimidazol-2-one] showed a pIC50 of 7.80. Besides, the inhibition at 10 µM on NPY2 receptors is 80%. The inhibition at 1 µM was found to be 48% at human V1b receptor [2] and 13% at human V2 receptor.

As to `CCOC(=O)CCn1c(=O)n(C2CCN(C(=S)NC(c3ccccc3)c3ccccc3)CC2)c2ccccc21` [Compound 60, 1-[(N1-Piperidinocarbothioyldiphenylmethylamino)-4-yl]-3-(2-carboethoxyethyl)-1,3-dihydro-benzimidazol-2-one], the inhibition at 1 µM was found to be 49% on human V1a receptor [1] and 0% at human V2 receptor. The inhibition at 10 µM at NPY2 receptors turned out to be 35%; at human V1b receptor [2] it was 19%.
